ChEMBL document CHEMBL1201862, “PubChem BioAssay data set” (2004)
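96-well plates; 48 h exposure; 5 concentrations. Endpoints by linear interpolation between flanking doses. Not reached: highest tested concentration assigned. The concentration for 50% growth inhibition is given as GI50.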 Calls of active or inactive are those of the source. Cut-off read from the data, not from the text of the source: active = GI50 up to about 1.1 µM and inactive = higher.

Assays:
Test in all cases: NCI-60 cell line screen, 48 h
HT-29 = tested on: HT-29
NCI-H226 = tested on: NCI-H226
HL-60 = tested on: HL-60
MOLT-4 = tested on: MOLT-4
SK-MEL-5 = tested on: SK-MEL-5
OVCAR-5 = tested on: OVCAR-5
A549 = tested on: A549
SF-268 = tested on: SF-268
U-251 = tested on: U-251
NCI-H522 = tested on: NCI-H522
CAKI-1 = tested on: CAKI-1
K562 = tested on: K562
SK-OV-3 = tested on: SK-OV-3
M14 = tested on: M14
OVCAR-4 = tested on: OVCAR-4
TK-10 = tested on: TK-10
ACHN = tested on: ACHN

Measured: GI50

O=C(NNC(=O)/C(=C/c1cccc([N+](=O)[O-])c1)NC(=O)c1ccccc1)Nc1ccc(Cl)cc1
inactive: HT-29 14.1 µM | NCI-H226 15.1 µM | HL-60 6.5 µM | MOLT-4 3.94 µM | SK-MEL-5 13.1 µM | OVCAR-5 18.3 µM | A549 14.3 µM | SF-268 15.1 µM | U-251 14.2 µM | NCI-H522 12.3 µM | CAKI-1 19.9 µM | K562 5.66 µM | SK-OV-3 15.8 µM | M14 12.8 µM | OVCAR-4 11.2 µM | TK-10 15.5 µM | ACHN 14 µM

COC(=O)C1=C(C[S+]([O-])c2ccc([N+](=O)[O-])cc2[N+](=O)[O-])ON(C)C1c1ccccc1 (configuration not stated)
inactive: HT-29 20.2 µM | NCI-H226 65.2 µM | HL-60 7.66 µM | MOLT-4 17.4 µM | SK-MEL-5 83.9 µM | OVCAR-5 > 95.7 µM | A549 99.8 µM | SF-268 33.5 µM | U-251 31.3 µM | NCI-H522 17.7 µM | CAKI-1 28 µM | K562 12.1 µM | SK-OV-3 > 100 µM | M14 96.6 µM | OVCAR-4 48.4 µM | TK-10 > 48.9 µM | ACHN 67.6 µM

COC(=O)c1c/c(=N\NC(=O)CC(=O)Nc2ccccc2Cl)c2ccccc2o1
inactive: HT-29 > 100 µM | NCI-H226 27.7 µM | HL-60 > 100 µM | MOLT-4 > 100 µM | SK-MEL-5 > 100 µM | OVCAR-5 > 100 µM | A549 > 100 µM | SF-268 > 100 µM | U-251 > 100 µM | NCI-H522 > 100 µM | CAKI-1 > 100 µM | K562 > 100 µM | SK-OV-3 > 100 µM | M14 > 100 µM | OVCAR-4 > 100 µM | TK-10 > 100 µM | ACHN > 100 µM

N#Cc1ccccc1/C=N/O
inactive: HT-29 > 75.3 µM | NCI-H226 > 100 µM | HL-60 > 44.4 µM | MOLT-4 > 100 µM | SK-MEL-5 > 100 µM | OVCAR-5 > 100 µM | A549 > 100 µM | SF-268 > 100 µM | U-251 > 81.1 µM | NCI-H522 > 100 µM | CAKI-1 > 100 µM | K562 > 44.7 µM | SK-OV-3 > 100 µM | M14 > 100 µM | OVCAR-4 > 100 µM | TK-10 > 100 µM | ACHN > 60.3 µM

Brc1ccccc1C1SCc2nc3ccccc3n21 (configuration not stated)
inactive: HT-29 23.5 µM | NCI-H226 17.1 µM | HL-60 6.71 µM | MOLT-4 18.5 µM | SK-MEL-5 6.34 µM | OVCAR-5 10.2 µM | A549 26.1 µM | SF-268 20 µM | U-251 15.7 µM | NCI-H522 13.2 µM | CAKI-1 20.7 µM | K562 7.01 µM | SK-OV-3 20.7 µM | M14 17.2 µM | OVCAR-4 23.8 µM | TK-10 20 µM | ACHN 16.4 µM

CCCCCCCCCCCCCCCC(=O)OCC1OC(n2cc(F)c(=O)[nH]c2=O)C(N)C(O)C1O (configuration not stated)
inactive: HT-29 20.6 µM | NCI-H226 17.5 µM | HL-60 19.5 µM | MOLT-4 22.8 µM | SK-MEL-5 18.1 µM | OVCAR-5 27 µM | A549 19 µM | SF-268 19.5 µM | U-251 18.5 µM | NCI-H522 17.8 µM | CAKI-1 21 µM | K562 16.5 µM | SK-OV-3 22.4 µM | M14 17.8 µM | OVCAR-4 15.8 µM | TK-10 21.9 µM | ACHN 18.8 µM

CCCCCCCCC(=O)N(C)C1C2CN3CCC(O2)C13 (configuration not stated)
inactive: HT-29 > 100 µM | NCI-H226 > 100 µM | HL-60 > 100 µM | MOLT-4 > 100 µM | SK-MEL-5 > 100 µM | OVCAR-5 > 100 µM | A549 > 100 µM | SF-268 > 100 µM | U-251 > 100 µM | NCI-H522 > 100 µM | CAKI-1 48.9 µM | K562 > 100 µM | SK-OV-3 > 100 µM | M14 > 100 µM | OVCAR-4 > 100 µM | TK-10 > 100 µM | ACHN > 100 µM

Cc1ccc(S(=O)(=O)NC(=O)NCCc2ccccc2)cc1
inactive: NCI-H226 > 100 µM | HL-60 74.1 µM | MOLT-4 > 100 µM | SK-MEL-5 > 100 µM | OVCAR-5 > 100 µM | A549 > 100 µM | SF-268 > 100 µM | U-251 > 100 µM | NCI-H522 73.8 µM | CAKI-1 > 100 µM | K562 83.4 µM | SK-OV-3 > 100 µM | M14 > 100 µM | OVCAR-4 > 100 µM | TK-10 > 100 µM | ACHN > 100 µM

O=C(CSc1nnc(-c2ccc(/N=C\c3ccc(Cl)cc3)cc2)o1)Nc1ccc(Cl)cc1Cl
inactive: HT-29 25.8 µM | NCI-H226 19.7 µM | HL-60 33.9 µM | MOLT-4 24.3 µM | SK-MEL-5 33.3 µM | OVCAR-5 94.4 µM | A549 > 100 µM | SF-268 25.2 µM | U-251 25.2 µM | NCI-H522 27 µM | CAKI-1 > 100 µM | K562 38 µM | SK-OV-3 27.5 µM | M14 16.4 µM | OVCAR-4 30.3 µM | TK-10 > 100 µM | ACHN 45.4 µM

Cc1cccc(NC(=O)CC2C(=O)Nc3ccccc3S2(=O)=O)c1C (configuration not stated)
inactive: HT-29 33.2 µM | NCI-H226 25 µM | HL-60 23.3 µM | MOLT-4 47.9 µM | SK-MEL-5 28.6 µM | OVCAR-5 > 100 µM | A549 31.2 µM | SF-268 33.2 µM | U-251 27 µM | NCI-H522 16.6 µM | CAKI-1 66.8 µM | K562 9.18 µM | SK-OV-3 21.9 µM | M14 25.4 µM | OVCAR-4 16.5 µM | TK-10 28.9 µM | ACHN 23.2 µM

C#CCNC(=O)N(CC#C)N=O
inactive: HT-29 > 100 µM | NCI-H226 > 100 µM | HL-60 25.3 µM | MOLT-4 31 µM | SK-MEL-5 > 100 µM | OVCAR-5 > 100 µM | SF-268 > 100 µM | U-251 > 100 µM | NCI-H522 19.5 µM | CAKI-1 > 100 µM | K562 24.8 µM | SK-OV-3 > 100 µM | M14 > 100 µM | OVCAR-4 > 100 µM | TK-10 > 100 µM | ACHN > 100 µM

O=C(OCc1ccccc1C1CSCSC1)c1cc(C(=O)OCc2ccccc2C2CSCSC2)c(C(=O)OCc2ccccc2C2CSCSC2)cc1C(=O)OCc1ccccc1C1CSCSC1
inactive: HT-29 > 100 µM | NCI-H226 > 100 µM | HL-60 > 100 µM | MOLT-4 > 100 µM | SK-MEL-5 > 100 µM | OVCAR-5 > 100 µM | A549 > 100 µM | SF-268 > 100 µM | U-251 > 100 µM | NCI-H522 > 100 µM | CAKI-1 > 100 µM | K562 > 100 µM | SK-OV-3 > 100 µM | M14 > 100 µM | OVCAR-4 > 100 µM | TK-10 > 100 µM | ACHN > 100 µM
